The values below come from the supplement of paper PMC10702517.

± gives the standard deviation.

The nature of data set [1]: chemical recovery from spiked human plasma; higher = better extraction. The settings on record: pooled human plasma.
Data set [2] is described as follows: chemical recovery by SPE of plasma after PDMS sampling; higher = better extraction. The note with it: pooled human plasma, extraction method: HLB SPE of plasma after PES.
Data set [3] can be described thus: chemical recovery into PDMS from spiked human plasma; higher = better extraction. The note with it: pooled human plasma, extraction method: PES with PDMS.
The mark [4] stands for this setting: extraction method: SPE only (HLB 96-well), PES comparison experiment.
Setting [5] is: extraction method: solvent precipitation (ACN + hexane).
The mark [6] stands for this setting: extraction method: SPE only (HLB 96-well).
Where [7] appears, read: extraction method: PES+SPE (3 d PDMS equilibration then HLB SPE).
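Wherever chemical recovery by SPE of plasma after PDMS sampling is given: over 400 spiked chemicals quantified by LC-HRMS or GC-HRMS via internal standard calibration, recovery relative to spike mix added to unspiked plasma extract to correct matrix effects.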

For the compound `CC1(C)CCC(Cc2ccc(Cl)cc2)C1(O)Cn1cncn1` (centres undefined) [Metconazole], the chemical recovery in data set [1] (setting [4]) came to 46.3 ± 8.6%; in data set [1] (setting [5]) it was 74.3 ± 3.4%. The entries for the “chemical recovery by SPE of plasma” value in data set [2] (equilibration time (d): 1), in data set [2] (equilibration time (d): 3) and in data set [2] (equilibration time (d): 6) were 2.06 ± 0.36%, 1.76 ± 0.4% and 1.11 ± 0.42%, respectively. The “chemical recovery into PDMS” value in data set [3] (equilibration time (d): 1) turned out to be 39.4 ± 2.5%; in data set [3] (equilibration time (d): 3), 41.9 ± 2.7%; in data set [3] (equilibration time (d): 6) it was 41.91 ± 0.15%.

For `Cc1cc(O)cc(C)c1[S+](C)[O-]` (centres undefined) [Methiocarb-sulfoxide phenol], the chemical recovery in data set [1] (setting [6]) is 45.3 ± 8.7%; in data set [1] (setting [4]) it was 54.3 ± 6.8%; in data set [1] (setting [5]) it was 78.8 ± 5.1%. Further, the “chemical recovery by SPE of plasma” value in data set [2] (equilibration time (d): 1) was 66.4 ± 8.3%; in data set [2] (equilibration time (d): 3) it was 66.7 ± 4.1%; in data set [2] (equilibration time (d): 6), 61.6 ± 2.4%. In addition, the “chemical recovery into PDMS” value was found to be 18.7 ± 0.39% in data set [3] (equilibration time (d): 1), 20.6 ± 0.91% in data set [3] (equilibration time (d): 3) and 20.7 ± 1.2% in data set [3] (equilibration time (d): 6).

On to `Cn1ncc(N)c(Cl)c1=O` [Methyldesphenylchloridazon], for which the chemical recovery in data set [1] (setting [4]) came to 35.8 ± 1.2%. The “chemical recovery by SPE of plasma” value stood at 24.3 ± 8.3% in data set [2] (equilibration time (d): 1), 21.3 ± 7.1% in data set [2] (equilibration time (d): 3) and 25 ± 8.3% in data set [2] (equilibration time (d): 6). The figures for the “chemical recovery into PDMS” value in data set [3] (equilibration time (d): 1), in data set [3] (equilibration time (d): 3) and in data set [3] (equilibration time (d): 6) were 1.07 ± 0.26%, 1.44 ± 0.31% and 1.24 ± 1.1%, respectively.

Turning to `CS(=O)(=O)c1ccccc1` [Methylphenylsulfone], the chemical recovery was determined as 19.9 ± 3.2% in data set [1] (setting [6]) and 68 ± 24% in data set [1] (setting [5]). Further, the “chemical recovery by SPE of plasma” value in data set [2] (equilibration time (d): 3) worked out at 104 ± 9.2%. Further, the figures for the “chemical recovery into PDMS” value in data set [3] (equilibration time (d): 1), in data set [3] (equilibration time (d): 3) and in data set [3] (equilibration time (d): 6) were 94.1 ± 26%, 98.5 ± 33% and 100 ± 28%, respectively.

With `CCc1cccc(C)c1N(C(=O)C(=O)O)C(C)COC` (centres undefined) [Metolachlor OA], the chemical recovery came to 40.1 ± 4.2% in data set [1] (setting [7]), 35.7 ± 1.4% in data set [1] (setting [6]), 54.1 ± 5.2% in data set [1] (setting [4]) and 73.7 ± 3.3% in data set [1] (setting [5]). Besides, the “chemical recovery by SPE of plasma” value in data set [2] (equilibration time (d): 1) worked out at 32.4 ± 6.7%; in data set [2] (equilibration time (d): 6) it was 30.3 ± 2.7%. Further, the results for the “chemical recovery into PDMS” value in data set [3] (equilibration time (d): 1), in data set [3] (equilibration time (d): 3) and in data set [3] (equilibration time (d): 6) were 19 ± 0.56%, 21.5 ± 1.7% and 21 ± 0.44%, respectively.

With `CCc1cccc(C)c1N(C(=O)CS(=O)(=O)O)[C@@H](C)C(=O)O` [Metolachlor-NOA 413-173], the results for the chemical recovery in data set [1] (setting [6]) and in data set [1] (setting [4]) were 35.6 ± 3.7% and 22.7 ± 9.6%, respectively. In addition, the entries for the “chemical recovery by SPE of plasma” value in data set [2] (equilibration time (d): 3) and in data set [2] (equilibration time (d): 6) were 27.8 ± 9.2% and 34.7 ± 5.3%, respectively. Besides, the “chemical recovery into PDMS” value in data set [3] (equilibration time (d): 1) is 1.97 ± 4.4%; in data set [3] (equilibration time (d): 3) it was 9.48 ± 1.4%; in data set [3] (equilibration time (d): 6), 7.51 ± 7%.

With `CCc1cccc(C)c1N(C(=O)CCl)C(C)COC` (centres undefined) [Metolachlor], the chemical recovery is 37.9 ± 5.3% in data set [1] (setting [7]), 38.1 ± 1.9% in data set [1] (setting [6]) and 47.6 ± 6.7% in data set [1] (setting [4]). Further, the “chemical recovery by SPE of plasma” value stood at 0.504 ± 0.043% in data set [2] (equilibration time (d): 1), 0.63 ± 0.12% in data set [2] (equilibration time (d): 3) and 0.323 ± 0.0041% in data set [2] (equilibration time (d): 6). Moreover, the results for the “chemical recovery into PDMS” value in data set [3] (equilibration time (d): 1), in data set [3] (equilibration time (d): 3) and in data set [3] (equilibration time (d): 6) were 37.3 ± 1.4%, 40.7 ± 3.2% and 40.6 ± 1.1%, respectively.

`CSc1nnc(C(C)(C)C)c(=O)n1N` [Metribuzin]: the chemical recovery is 49.7 ± 7.4% in data set [1] (setting [7]), 49 ± 2.9% in data set [1] (setting [6]), 54.2 ± 7.9% in data set [1] (setting [4]) and 71.8 ± 2.9% in data set [1] (setting [5]). Moreover, the “chemical recovery by SPE of plasma” value is 10.9 ± 1.3% in data set [2] (equilibration time (d): 1), 15.3 ± 1.4% in data set [2] (equilibration time (d): 3) and 10.4 ± 1.8% in data set [2] (equilibration time (d): 6). For the same compound, the “chemical recovery into PDMS” value in data set [3] (equilibration time (d): 1) turned out to be 25 ± 2.2%; in data set [3] (equilibration time (d): 3), 25.2 ± 1.9%; in data set [3] (equilibration time (d): 6) it was 29.4 ± 1.2%.

`CN(C)c1ccc(C(=O)c2ccc(N(C)C)cc2)cc1` [Michler's ketone]: the chemical recovery in data set [1] (setting [6]) was found to be 34.4 ± 1.9%. The “chemical recovery by SPE of plasma” value is 1.38 ± 0.41% in data set [2] (equilibration time (d): 1), 1.1 ± 0.12% in data set [2] (equilibration time (d): 3) and 0.502 ± 0.091% in data set [2] (equilibration time (d): 6). The “chemical recovery into PDMS” value in data set [3] (equilibration time (d): 1) worked out at 17.2 ± 9.7%; in data set [3] (equilibration time (d): 3), 15.5 ± 10%; in data set [3] (equilibration time (d): 6) it was 16.7 ± 4.2%.

With `Clc1ccc(COC(Cn2ccnc2)c2ccc(Cl)cc2Cl)c(Cl)c1` (centres undefined) [Miconazole], the chemical recovery came out at 43.2 ± 6.1% in data set [1] (setting [6]), 40.4 ± 10% in data set [1] (setting [4]) and 85.3 ± 8.5% in data set [1] (setting [5]). Moreover, the “chemical recovery by SPE of plasma” value in data set [2] (equilibration time (d): 1) was found to be 0.659 ± 0.14%; in data set [2] (equilibration time (d): 3), 0.405 ± 0.14%; in data set [2] (equilibration time (d): 6) it was 0.117 ± 0.082%. The “chemical recovery into PDMS” value came out at 33.6 ± 2.4% in data set [3] (equilibration time (d): 1), 34.9 ± 3.2% in data set [3] (equilibration time (d): 3) and 31.5 ± 2.8% in data set [3] (equilibration time (d): 6).

As for `CC[C@@]1([C@@H]2O[C@@H]([C@H]3O[C@@](O)(CO)[C@H](C)C[C@@H]3C)C[C@@H]2C)CC[C@H]([C@]2(C)CC[C@]3(C[C@H](O)[C@@H](C)[C@@H]([C@@H](C)[C@@H](OC)[C@H](C)C(=O)O)O3)O2)O1` [Monensin], the chemical recovery in data set [1] (setting [4]) is 29.9 ± 6.6%; in data set [1] (setting [5]) it was 1.03 ± 1.8%. Moreover, the “chemical recovery by SPE of plasma” value in data set [2] (equilibration time (d): 1) was 3.19 ± 0.8%; in data set [2] (equilibration time (d): 3) it was 2.26 ± 0.39%; in data set [2] (equilibration time (d): 6), 1.33 ± 0.27%. The entries for the “chemical recovery into PDMS” value in data set [3] (equilibration time (d): 1), in data set [3] (equilibration time (d): 3) and in data set [3] (equilibration time (d): 6) were 37.1 ± 2.8%, 38.6 ± 0.52% and 37.8 ± 2.2%, respectively.

As for `CCCCC(C#N)(Cn1cncn1)c1ccc(Cl)cc1` (centres undefined) [Myclobutanil], the values for the chemical recovery in data set [1] (setting [4]) and in data set [1] (setting [5]) were 48.5 ± 8.4% and 79.3 ± 2.2%, respectively. For the same compound, the “chemical recovery by SPE of plasma” value is 1.71 ± 0.26% in data set [2] (equilibration time (d): 1) and 1.32 ± 0.3% in data set [2] (equilibration time (d): 3). Besides, the “chemical recovery into PDMS” value in data set [3] (equilibration time (d): 1) turned out to be 38.4 ± 1.9%; in data set [3] (equilibration time (d): 3), 42.1 ± 3.6%; in data set [3] (equilibration time (d): 6), 41.6 ± 0.64%.

For `CCCCCCCCCCCCCC[N+](C)(C)[O-]` [N,N-Dimethyltetradecylamine-N-oxide], the chemical recovery in data set [1] (setting [6]) turned out to be 71.5 ± 26%; in data set [1] (setting [4]) it was 42.7 ± 8.4%. The “chemical recovery by SPE of plasma” value in data set [2] (equilibration time (d): 1) was found to be 15.7 ± 3.1%; in data set [2] (equilibration time (d): 3), 12.5 ± 4.9%; in data set [2] (equilibration time (d): 6), 8.54 ± 5.7%. The “chemical recovery into PDMS” value in data set [3] (equilibration time (d): 1) was 0.599 ± 0.55%; in data set [3] (equilibration time (d): 3), 1.2 ± 0.35%; in data set [3] (equilibration time (d): 6), 1.01 ± 0.26%.
